Measured values reported in US20170367995A1, “TREATMENT OF EARLY STAGE PARKINSON'S DISEASE WITH A HYDROXYTYROSOL-CONTAINING POLYPHENOL FORMULATION” (Allevium Therapeutics, Inc., priority 2016, published 2017).

Legend:
[1] = test system: rotenone-induced PD state; test: Pole test (body coordination and balance) in rotenone mouse model of PD; format: in vivo, male adult CD1 mice; conditions: hydroxytyrosol 10 mg/kg/day plus rotenone 5 mg/kg/day i.p., 28 days, relative to rotenone only
[2] = test system: cells from the mesencephalic region; test: Histology of cells from the mesencephalic region, rotenone mouse model; format: in vivo, male adult CD1 mice; conditions: hydroxytyrosol-treated relative to rotenone-only ("vehicle") group
iNOS production = test: Western blot on the mesencephalic region: iNOS; parameters: species or system male adult CD1 mice
Experimental: (§1) In vitro testing was then carried out on the mesencephalic region, with respect to iNOS production, IkB-α, NF-κB, Bax, and Bcl2. Western blot analyses and corresponding bar graphs are presented in FIG. 5 (iNOS production, optical density normalized to β-actin), FIG. 6 (IkB-α, also normalized to β-actin), FIG. 7 (NF-κB, optical density normalized to lamin A/C), FIG. 8 (Bax, normalized to β-actin), and FIG. 9 (Bcl2, normalized to β-actin). In each case, the effect of hydroxytyrosol is marked.

IkB-α = test: Western blot on the mesencephalic region: IkB-α; parameters: species or system male adult CD1 mice
Experimental: as §1

NF-κB = test: Western blot on the mesencephalic region: NF-κB; parameters: species or system male adult CD1 mice
Experimental: as §1

Bax = test: Western blot on the mesencephalic region: Bax; parameters: species or system male adult CD1 mice
Experimental: as §1

Bcl2 = test: Western blot on the mesencephalic region: Bcl2; parameters: species or system male adult CD1 mice
Experimental: as §1

endothelial cell = test: Endothelial cell based assay (pro-/anti-oxidant effect)
From the text: Without wishing to be bound by theory, it may be postulated that the removal of hydroxytyrosol from its original matrix and natural environment can result in adverse effects, and that at least some of the naturally occurring associated polyphenols are necessary to include in a therapeutic hydroxytyrosol formulation.

[3] = even at high concentrations; Auñon-Calles et al. (2013); cited from earlier work
[4] = test system: subject diagnosed with Parkinson's disease; test: Case of a Parkinson's subject given Olivenol Plus capsules (Example 1); format: in vivo, human; conditions: orally administered L-dopa for over three months before the polyphenol treatment, one subject
Experimental: The subject was given an olive polyphenol composition orally, in the form of two Olivenol Plus® capsules administered three times per day. As each capsule contains 12 mg olive polyphenols, including about 5 mg hydroxytyrosol, the daily dose given to the subject was 72 mg olive polyphenols, including 30 mg hydroxytyrosol.

Structure (SMILES) | pole test time to turn (orientation time), FIG. 1B [1] | pole test total time (orientation and complete descent), FIG. 1A [1] | histologic injury score, FIG. 4 [2] | iNOS production, optical density normalized to β-actin, FIG. 5 (iNOS production) | IkB-α, normalized to β-actin, FIG. 6 (IkB-α) | NF-κB, optical density normalized to lamin A/C, FIG. 7 (NF-κB) | Bax, normalized to β-actin, FIG. 8 (Bax) | Bcl2, normalized to β-actin, FIG. 9 (Bcl2) | pro-oxidant / anti-oxidant effect (endothelial cell) | toxicity [3] | improvement after treatment [4]
OCCc1ccc(O)c(O)c1 [hydroxytyrosol, 4-(hydroxyethyl)-1,2-benzene diol] | significantly lowers | significantly lowers | significantly reduces | marked | marked | marked | marked | marked | pro-oxidant effect | no toxicity has been detected | 
N[C@@H](Cc1ccc(O)c(O)c1)C(=O)O [L-dopa] |  |  |  |  |  |  |  |  |  |  | no noticeable improvement
